Data: patent publication US12428415B2, “Matriptase 2 inhibitors and uses thereof” (Disc Medicine, Inc., priority 2018, dated 2025)

These compounds were tested against T1, Human Recombinant Matriptase 2 (Homo sapiens, UniProt Q8IU80) (assay: Matriptase 2 fluorescence based inhibition assay, Method B (50 mM TRIS pH 7.5, 150 mM NaCl, 0.01% gelatin)). Details: 1 uM compound; Assay Used = B.
T1 construct: purchased Enzo Life Sciences (an in-house preparation was also used) ALX-201-752-1
T1 sequence (Q8IU80 1-811): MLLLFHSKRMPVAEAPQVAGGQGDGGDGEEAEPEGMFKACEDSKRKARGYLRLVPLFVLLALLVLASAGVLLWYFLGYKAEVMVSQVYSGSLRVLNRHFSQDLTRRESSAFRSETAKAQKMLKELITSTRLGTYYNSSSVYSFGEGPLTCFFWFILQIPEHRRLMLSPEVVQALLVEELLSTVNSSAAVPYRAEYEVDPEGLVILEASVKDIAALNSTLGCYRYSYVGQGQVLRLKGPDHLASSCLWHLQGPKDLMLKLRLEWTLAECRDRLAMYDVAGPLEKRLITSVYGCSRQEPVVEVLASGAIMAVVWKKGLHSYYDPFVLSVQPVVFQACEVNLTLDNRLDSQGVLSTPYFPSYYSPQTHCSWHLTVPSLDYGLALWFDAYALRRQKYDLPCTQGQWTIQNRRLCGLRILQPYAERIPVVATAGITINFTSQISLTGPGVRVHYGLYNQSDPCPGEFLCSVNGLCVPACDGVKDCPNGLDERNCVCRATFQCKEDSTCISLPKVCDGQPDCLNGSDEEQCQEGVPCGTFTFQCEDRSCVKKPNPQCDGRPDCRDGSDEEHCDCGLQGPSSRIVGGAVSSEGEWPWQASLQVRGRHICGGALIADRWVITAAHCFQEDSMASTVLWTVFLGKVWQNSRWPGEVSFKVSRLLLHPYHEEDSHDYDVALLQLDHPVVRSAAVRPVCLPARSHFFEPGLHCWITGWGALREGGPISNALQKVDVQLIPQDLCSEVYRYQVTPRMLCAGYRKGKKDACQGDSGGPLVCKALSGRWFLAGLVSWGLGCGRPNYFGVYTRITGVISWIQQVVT
Assay type: biochemical
Procedure, shortened: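 Commercial (7 nM) or in-house (15 nM) enzyme preincubated 30 min with compound at 25° C, then 100 μM Boc-Gln-Ala-Arg-AMC added; fluorescence (Ex 360/Em 480 nm) read at 60 min. 1% DMSO final. IC50 from variable-slope sigmoidal fit of % inhibition.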

Compound	Mar-2 % inhibition at 1 uM
CN(C)C(=O)c1cc2ccc(C(=N)N)cc2n1Cc1cccc2ccccc12 [Compound I-482]	B (B represents 25%≤I≤50%)

Same assay, conditions: 1 uM compound; Assay Used = B (Method B)

Compound	Mar-2 % inhibition at 1 uM
N#Cc1c(C(=O)N[C@H]2CC[C@H](N)CC2)n(Cc2cccc3ccccc23)c2cc(C(=N)N)ccc12 [Compound I-657]	A (A represents 0%≤I≤25%)
N=C(N)c1ccc2cc(NC(=O)[C@H]3CC[C@H](N)CC3)n(Cc3cccc4ccccc34)c2c1 [Compound I-671]	C (C represents 50%≤I≤75%)

Same assay, conditions: 1 uM compound; Assay Used = B (Method B); read-out: Mar-2 % inhibition at 1 uM

Compound	inhibition at 1 µM [%]
CO/N=C(\N)c1ccc2cc(C(=O)O)n(Cc3cccc4ccccc34)c2n1 [Compound I-704, (Z)-6-(N′-methoxycarbamimidoyl)-1-(naphthalen-1-ylmethyl)-1H-pyrrolo[2,3-b]pyridine-2-carboxylic Acid]	0 to 25
N=C(N)c1ccc2cc(C(=O)N[C@H]3CC[C@H](N)CC3)n(Cc3cc(Sc4ccccc4)cc4ccccc34)c2c1 [Compound I-725]	75 to 100
COC(=O)N[C@H]1CC[C@H](NC(=O)c2cc3ccc(C(=N)N)cc3n2Cc2cccc3ccccc23)CC1 [Compound I-735]	25 to 50
CC1(O)CCC(OC(=O)c2cc3ccc(C(=N)N)cc3n2Cc2cc(Oc3ccccc3)cc3ccccc23)CC1 (centres unmarked) [Compound I-617]	0 to 25
CCOC(=O)c1cc2ccc(C(=N)NC(=O)OCC(C)C)cc2n1Cc1cccc2ccccc12 [Compound I-719, Ethyl 6-(N-(isobutoxycarbonyl)carbamimidoyl)-1-(naphthalen-1-ylmethyl)-1H-indole-2-carboxylate]	0 to 25
N=C(N)c1ccc2cc(C(=O)N[C@H]3CC[C@H](N)CC3)n(Cc3cccc4cc(-c5ccccc5)ccc34)c2c1 [Compound I-768]	75 to 100
N=C(N)c1ccc2cc(C(=O)OCCO)n(Cc3cccc4ccccc34)c2c1 [Compound I-611]	50 to 75
N=C(N)c1ccc2cc(C(=O)O)n(Cc3cc(O)cc4ccccc34)c2c1 [Compound I-695, 6-carbamimidoyl-1-((3-hydroxynaphthalen-1-yl)methyl)-1H-indole-2-carboxylic Acid]	75 to 100
CNC(=N)c1ccc2[nH]c(C(=O)N[C@H]3CC[C@H](N)CC3)c(Cc3cccc4ccccc34)c2c1 [Compound I-747]	0 to 25
CCOC(=O)c1cc2ccc(C(N)=NO)cc2n1Cc1cc(Oc2ccccc2)cc2ccccc12 [Compound I-663]	0 to 25
N=C(N)c1ccc2cc(C(=O)O)n(Cc3cc(Oc4ccccc4)cc4ccccc34)c2c1 [Compound I-746]	50 to 75
CCn1c(C(=O)O)c(Cc2cccc3ccccc23)c2cc(C(=N)N)ccc21 [Compound I-685]	50 to 75
N=C(N)c1ccc2cc(C(=O)N[C@H]3CC[C@H](N)CC3)n(Cc3cccc4cc(Oc5ccccc5)ccc34)c2c1 [Compound I-707]	75 to 100
COc1ccc2c(Cn3c(C(=O)N[C@H]4CC[C@H](N)CC4)cc4ccc(/C(N)=N\O)cc43)cccc2c1 [Compound I-795]	0 to 25
CC(C)(C)OC(=O)N[C@H]1CC[C@H](NC(=O)c2cc3ccc(C(=N)N)cc3n2Cc2cccc3ccccc23)CC1 [Compound I-787]	0 to 25
N=C(N)c1ccc2cc(C(=O)O)n(Cc3cccc4ccccc34)c2n1 [Compound I-766]	75 to 100
CN1CCC(OC(=O)c2cc3ccc(C(=N)N)cc3n2Cc2cccc3ccccc23)CC1 [Compound I-752]	75 to 100
COc1ccc(Cn2c(C(=O)N[C@H]3CC[C@H](N)CC3)cc3ccc(C(=N)N)cc32)c2ccccc12 [Compound I-668]	75 to 100
Cn1c(C(=O)O)c(Cc2cccc3ccccc23)c2cc(/C(N)=N/O)ccc21 [Compound I-641]	0 to 25
N=C(N)c1ccc2cc(C(=O)OCCN)n(Cc3cc(Oc4ccccc4)cc4ccccc34)c2c1 [Compound I-629]	75 to 100

Same assay, conditions: 1 uM compound; Assay Used = B; read-out: Mar-2 % inhibition at 1 uM

Compound	inhibition at 1 µM [%]
N=C(N)c1ccc2cc(C(=O)N[C@H]3CC[C@H](N)CC3)n(CCc3cccc4ccccc34)c2c1 [Compound I-409]	25 to 50
N=C(N)c1ccc2cc(C(=O)N[C@H]3CC[C@H](N)CC3)n(Cc3cccc4cnccc34)c2c1 [Compound I-504]	50 to 75
N=C(N)c1ccc2nc(C(=O)N[C@H]3CC[C@H](N)CC3)n(Cc3cccc4ccccc34)c2c1 [Compound I-542, N-((1r,4r)-4-aminocyclohexyl)-6-carbamimidoyl-1-(naphthalen-1-ylmethyl)-1H-benzo[d]imidazole-2-carboxamide]	75 to 100
NC(=O)c1ccc2cc(C(=O)N[C@@H]3CCNC3)n(Cc3cccc4ccccc34)c2c1 [Compound I-456]	0 to 25
Cc1cc(C)nc(Oc2cc(Cn3c(C(=O)O)cc4ccc(C(=N)N)cc43)c3ccccc3c2)n1 [Compound I-570]	25 to 50
CC(C)(C)OC(=O)NCc1ccc2cc(C(=O)O)n(Cc3cccc4ccccc34)c2c1 [Compound I-539, 6-(((tert-butoxycarbonyl)amino)methyl)-1-(naphthalen-1-ylmethyl)-1H-indole-2-carboxylic Acid]	0 to 25
CC(C)(C)OC(=O)NC(=N)c1ccc2cc(C(=O)NCc3ccc(CO)cc3)n(Cc3cccc4ccccc34)c2c1 [Compound I-421]	0 to 25
N=C(N)c1ccc2cc(C(=O)Nc3cccc(-c4ncc[nH]4)c3)n(Cc3cccc4ccccc34)c2c1 [Compound I-448]	25 to 50
CC(C)(C)OC(=O)N[C@H]1CC[C@H](NC(=O)c2cc3ccc(C(=N)N)cc3n2CCc2ccc3ccccc3c2)CC1 [Compound I-405]	25 to 50
N#Cc1c(C(=O)N[C@H]2CC[C@H](N)CC2)n(Cc2cccc3ccccc23)c2cc(C(=N)N)ccc12 [Compound I-514, N-((1r,4r)-4-aminocyclohexyl)-6-carbamimidoyl-3-cyano-1-(naphthalen-1-ylmethyl)-1H-indole-2-carboxamide]	0 to 25
N=C(N)c1ccc2cc(C(=O)N[C@H]3CC[C@@H](N)CC3)n(-c3ccc4ccccc4c3)c2c1 [Compound I-491]	50 to 75
COC(=O)[C@H]1CC[C@H](NC(=O)c2cc3ccc(C(=N)N)cc3n2Cc2cccc3ccccc23)CC1 [Compound I-471]	25 to 50
CC(C)(C)OC(=O)NC(=N)c1ccc2cc(C(=O)NCC3CCN(C(=O)OC(C)(C)C)CC3)n(Cc3cccc4ccccc34)c2c1 [Compound I-492, tert-butyl4-((6-(N-(tert-butoxycarbonyl)carbamimidoyl)-1-(naphthalen-1-ylmethyl)-1H-indole-2-carboxamido)methyl)piperidine-1-carboxylate]	25 to 50
CC(C)COC(=O)NC(=N)c1ccc2cc(C(=O)O)n(Cc3cc(Oc4ncccn4)cc4ccccc34)c2c1 [Compound I-595]	25 to 50
CC(C)(C)OC(=O)NC(=N)c1ccc2cc(C(=O)Nc3ccc(NC(=O)c4ccccn4)cc3)n(Cc3cccc4ccccc34)c2c1 [Compound I-419]	0 to 25
N=C(N)c1ccc2cc(C(=O)O)n(Cc3ccc4ccccc4c3)c2c1 [Compound I-459]	25 to 50
CNC(=N)c1ccc2cc(C(=O)N[C@H]3CC[C@H](N)CC3)n(Cc3ccc4ccccc4c3)c2c1 [Compound I-414]	0 to 25

Same assay, conditions: compound at 1 uM; Assay Used: B; read-out: Mar-2 % inhibition at 1 uM

Compound	inhibition at 1 µM [%]
N=C(N)c1ccc2cc(C(=O)O)n(Cc3cccc4cc(O)ccc34)c2c1 [Compound I-821]	75 to 100
